Patent US20150175655A1 (priority 2012, published 2015)

Target: T1, NS3 genotype 3a protease (UniProt Q81258)
T1 construct: Purified NS3 protease domain (amino acids 1-181) of the genotype 1b and 3a virus were generated as above; fused on or other part: N-terminal hexahistidine tag and rTEV protease cleavage site (vector p28-N6H-Tev-NS3(181)3)
T1 sequence (Q81258 1033-1663): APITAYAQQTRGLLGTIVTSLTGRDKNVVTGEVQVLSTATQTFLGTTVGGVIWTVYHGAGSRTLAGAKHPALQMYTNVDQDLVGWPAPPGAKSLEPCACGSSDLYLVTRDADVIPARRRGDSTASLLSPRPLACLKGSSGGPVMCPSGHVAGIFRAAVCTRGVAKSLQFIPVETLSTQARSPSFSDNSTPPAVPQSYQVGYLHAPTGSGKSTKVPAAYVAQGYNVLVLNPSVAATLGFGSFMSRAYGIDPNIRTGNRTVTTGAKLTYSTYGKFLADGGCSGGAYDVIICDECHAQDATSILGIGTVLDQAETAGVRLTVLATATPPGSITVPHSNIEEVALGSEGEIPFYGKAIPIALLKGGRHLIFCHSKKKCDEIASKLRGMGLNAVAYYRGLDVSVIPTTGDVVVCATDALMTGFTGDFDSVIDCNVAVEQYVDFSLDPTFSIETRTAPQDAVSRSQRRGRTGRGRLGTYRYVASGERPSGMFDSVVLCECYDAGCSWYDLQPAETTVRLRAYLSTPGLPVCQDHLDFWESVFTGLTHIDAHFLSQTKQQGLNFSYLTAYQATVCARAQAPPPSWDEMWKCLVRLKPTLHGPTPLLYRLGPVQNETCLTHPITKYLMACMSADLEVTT
Test: Ki determination, NS3 protease genotype 3a (fluorogenic depsipeptide substrate)
Format: biochemical, hepatitis C virus
Details: 200 pM enzyme, 20 μM NS4A peptide, 2 μM substrate, read-out: Ki 3A
Source text: The coding sequences for the genotype 3 HCV protease domain was amplified by RT-PCR using a Titan One Tube RT-PCR Kit (Roche, Indianapolis, Ind.) and RNA extracted from HCV-positive human serum (BBI Diagnostics, MA) using a QIAmp UltraSens Virus Kit (Qiagen, Valencia, Calif.). 5′ PCR primers were designed to encode N-terminal hexahistidine tags and to insert in-frame rTEV protease cleavage sites into the NS3 protease coding sequences. The resulting DNA fragments were cloned into pET28 yielding the expression vectors p28-N6H-Tev-NS3(181)1a and p28-N6H-Tev-NS3(181)3, respectively.
BL21AI bacteria (Invitrogen, Carlsbad, Calif.) were transformed with genotype 1b or 3 NS3 expression vectors and used to inoculate a 20 L fermentation vessel (Sartorius BBI System Inc., Bethlehem, Pa.), containing 18 L of fresh 2YT medium supplemented with 50 μg/mL kanamycin. When cell densities reached an OD600 of 1, the temperature of the cultures was reduced from 37° C. to 28° C. and induction was immediately initiated by the addition of 30 μM ZnSO4, 14 mM L-arabinose and 1 mM Isopropyl β-D-thiogalactoside (IPTG) final concentrations. Cells were harvested by centrifugation four hours post-induction and were stored as frozen pellets at −80° C. prior to NS3 protein purification.
Bacterial pellets collected from the expression of genotype 3 HCV NS3 protease were homogenized in Lysis Buffer (25 mM tris, pH 7.5 buffer containing 150 mM NaCl and 1 mM phenylmethanesulfonyl fluoride (PMSF)) and passed through a microfluidizer at 18,000 pounds/in^2. Homogenized cell lysates were centrifuged at 30,000×g for 30 minutes at 4° C. The resulting P1 pellets were washed with Wash Buffer I (25 mM tris, pH 7.5 containing 1% CHAPS) followed by centrifugation at 10,000×g for 30 minutes at 4° C. […] The resulting P3 pellets were resuspended in Solubilization Buffer (20 ml of 25 mM tris, pH 7.5 containing 150 mM NaCl and 8 M urea) and incubated at 4° C. for one hour. Solubilized proteins were passed through a 0.45 micron filter. Protein concentrations were measured and the solutions were adjusted to 40 mM DTT, incubated for 30 minutes at 4° C. and then quickly diluted into Refolding Buffer (25 mM tris, pH 8.5, 0.8 M Guanidine-HCl, 0.4 M L-Arginine, 10 mM ZnSO4) while stirring. Protein solutions were incubated at 4° C. overnight to allow refolding. Refolded proteases were centrifuged at 30,000×g for 10 minutes to remove residual precipitates. Final protein concentrations were then measured and the NS3 proteases were aliquoted, snap frozen in liquid nitrogen and stored at −80° C.
Purified NS3 protease domain (amino acids 1-181) of the genotype 1b and 3a virus were generated as above. The internally quenched fluorogenic depsipeptide substrate Ac-DED(Edans)-EEAbuψ[COO]ASK(Dabcyl)-NH2 and a synthetic peptide containing the hydrophobic core residues of the NS4A protein cofactor ([…]; NS4A peptide) were obtained from Anaspec, Inc. (San Jose, Calif.). Other chemicals and biochemicals were of reagent grade or better and were purchased from standard suppliers.
Reactions were run at room temperature in buffer consisting of 50 mM HEPES, 40% glycerol, 0.05% Triton X-100, 10 mM DTT, and 10% DMSO. The final assay solutions contained 50 pM NS3 genotype 1b protease or 200 pM genotype 3a protease, 20 μM NS4A peptide, and 4 μM substrate (genotype 1 b) or 2 μM substrate (genotype 3a). Inhibitor concentrations varied from 100 nM to 5 pM in 3-fold dilutions, and no-inhibitor controls were included.
Compound dilutions were made in DMSO at 20× final concentration. Reaction mixtures were prepared in 96-well assay plates. A solution of enzyme and NS4A peptide in assay buffer (25 μL volume with both reagents at 4× final concentration) was mixed with 45 μL assay buffer and 5 μL of either inhibitor or DMSO, and pre-incubated at room temperature for 1 hour. The reaction was started by addition of 25 μL substrate solution at 4× final concentration. […]

SMILES | Ki [nM]
COc1ccc2nc3c(nc2c1)O[C@H]1CN(C(=O)[C@H](C(C)(C)C)NC(=O)O[C@@H]2C[C@H]2CCCCC3)[C@H](C(=O)N[C@]2(C(=O)NS(=O)(=O)C3(C)CC3)C[C@H]2C(F)F)[C@@H]1CC#N [Example 50, (1aR,5S,8S,9S,10R,22aR)-5-tert-butyl-9-(cyanomethyl)-N-[(1R,2R)-2-(difluoromethyl)-1-{[(1-methylcyclopropyl)sulfonyl]carbamoyl}cyclopropyl]-14-methoxy-3,6-dioxo-1,1a,3,4,5,6,9,10,18,19,20,21,22,22a-tetradecahydro-8H-7,10-methanocyclopropa[18,19][1,10,3,6]dioxadiazacyclononadecino[11,12-b]quinoxaline-8-carboxamide] | > 100
COc1ccc2nc3c(nc2c1)O[C@H]1CN(C(=O)[C@H](C(C)(C)C)NC(=O)O[C@@]2(C)C[C@@H]2CCCCC3)[C@H](C(=O)N[C@]2(C(=O)NS(=O)(=O)C3(C)CC3)C[C@H]2C(F)F)[C@@H]1C [Example 45, (1aS,5S,8S,9S,10R,22aS)-5-tert-butyl-N-[(1R,2R)-2-(difluoromethyl)-1-{[(1-methylcyclopropyl)sulfonyl]carbamoyl}cyclopropyl]-14-methoxy-1a,9-dimethyl-3,6-dioxo-1,1a,3,4,5,6,9,10,18,19,20,21,22,22a-tetradecahydro-8H-7,10-methanocyclopropa[18,19][1,10,3,6]dioxadiazacyclononadecino[11,12-b]quinoxaline-8-carboxamide] | 0.48
COc1ccc2nc3c(nc2c1)O[C@H]1CN(C(=O)[C@H](C(C)(C)C)NC(=O)O[C@@H]2CCC[C@H]2CCCCC3)[C@H](C(=O)N[C@]2(C(=O)NS(=O)(=O)C3CC3)C[C@H]2C(F)F)[C@@H]1C [Example 28, (3aR,7S,10S,11S,12R,24aR)-7-tert-butyl-N-[(1R,2R)-1-[(cyclopropylsulfonyl)carbamoyl]-2-(difluoromethyl)cyclopropyl]-16-methoxy-11-methyl-5,8-dioxo-1,2,3,3a,5,6,7,8,11,12,20,21,22,23,24,24a-hexadecahydro-10H-9,12-methanocyclopenta[18,19][1,10,3,6]dioxadiazacyclononadecino[11,12-b]quinoxaline-10-carboxamide] | 0.08
CC[C@@H]1[C@@H]2CN(C(=O)[C@H](C(C)(C)C)NC(=O)O[C@@H]3C[C@H]3CCCCCc3nc4ccc(OC)cc4nc3O2)[C@@H]1C(=O)N[C@]1(C(=O)NS(=O)(=O)C2(F)CC2)C[C@H]1C(F)F [Example 74, (1aR,5S,8S,9S,10R,22aR)-5-tert-butyl-N-[(1R,2R)-2-(difluoromethyl)-1-{[(1-fluorocyclopropyl)sulfonyl]carbamoyl}cyclopropyl]-9-ethyl-14-methoxy-3,6-dioxo-1,1a,3,4,5,6,9,10,18,19,20,21,22,22a-tetradecahydro-8H-7,10-methanocyclopropa[18,19][1,10,3,6]dioxadiazacyclononadecino[11,12-b]quinoxaline-8-carboxamide] | 0.12
CC[C@@H]1[C@@H]2CN(C(=O)[C@H](C(C)(C)C)NC(=O)O[C@@H]3C[C@H]3CCCCC(F)(F)c3nc4ccccc4nc3O2)[C@@H]1C(=O)N[C@]1(C(=O)NS(=O)(=O)C2CC2)C[C@H]1CC [Example 54, (1aR,5S,8S,9S,10R,22aR)-5-tert-butyl-N-{(1R,2R)-1-[(cyclopropylsulfonyl)carbamoyl]-2-ethylcyclopropyl}-9-ethyl-18,18-difluoro-3,6-dioxo-1,1a,3,4,5,6,9,10,18,19,20,21,22,22a-tetradecahydro-8H-7,10-methanocyclopropa[18,19][1,10,3,6]dioxadiazacyclononadecino[11,12-b]quinoxaline-8-carboxamide] | 0.5

Same assay, conditions: read-out: Ki 3A, 200 pM enzyme, 20 μM NS4A peptide, 2 μM substrate

SMILES | Ki [nM]
CCC[C@@H]1[C@@H]2CN(C(=O)[C@H](C(C)(C)C)NC(=O)O[C@@H]3C[C@H]3CCCCC(F)(F)c3nc4ccc(OC)cc4nc3O2)[C@@H]1C(=O)N[C@]1(C(=O)NS(=O)(=O)C2(C)CC2)C[C@H]1C(F)F [Example 65, (1aR,5S,8S,9S,10R,22aR)-5-tert-butyl-N-[(1R,2R)-2-(difluoromethyl)-1-{[(1-methylcyclopropyl)sulfonyl]carbamoyl}cyclopropyl]-18,18-difluoro-14-methoxy-3,6-dioxo-9-propyl-1,1a,3,4,5,6,9,10,18,19,20,21,22,22a-tetradecahydro-8H-7,10-methanocyclopropa[18,19][1,10,3,6]dioxadiazacyclononadecino[11,12-b]quinoxaline-8-carboxamide] | 0.07
COc1ccc2nc3c(nc2c1)O[C@H]1CN(C(=O)[C@H](C(C)(C)C)NC(=O)O[C@@H]2C[C@@H]4C[C@@H]4[C@H]2CCCCC3)[C@H](C(=O)N[C@]2(C(=O)NS(=O)(=O)C3CC3)C[C@H]2CC(F)F)[C@@H]1C [Example 57, (1aS,2aR,6S,9S,10S,11R,23aR,23bS)-6-tert-butyl-N-[(1R,2S)-1-[(cyclopropylsulfonyl)carbamoyl]-2-(2,2-difluoroethyl)cyclopropyl]-15-methoxy-10-methyl-4,7-dioxo-1a,2,2a,4,5,6,7,10,11,19,20,21,22,23,23a,23b-hexadecahydro-1H,9H-8,11-methanocyclopropa[4′,5′]cyclopenta[1′,2′:18,19][1,10,3,6]dioxadiazacyclononade cino[11,12-b]quinoxaline-9-carboxamide] | 0.28
CC[C@@H]1C[C@]1(NC(=O)[C@@H]1[C@H](C)[C@@H]2CN1C(=O)[C@H](C(C)(C)C)NC(=O)O[C@@H]1C[C@H]1CCCCCc1nc3ccc(OC)cc3nc1O2)C(=O)NS(=O)(=O)C1CC1 [Example 20, (1aR,5S,8S,9S,10R,22aR)-5-tert-butyl-N-{(1R,2R)-1-[(cyclopropylsulfonyl)carbamoyl]-2-ethylcyclopropyl}-14-methoxy-9-methyl-3,6-dioxo-1,1a,3,4,5,6,9,10,18,19,20,21,22,22a-tetradecahydro-8H-7,10-methanocyclopropa[18,19][1,10,3,6]dioxadiazacyclononadecino[11,12-b]quinoxaline-8-carboxamide] | 0.53
